Source: US20100099756A1, “USES OF INCENSOLE, INCENSOLE ACETATE AND DERIVATIVES THEREOF” (YISSUM RESEARCH DEVELOPMENT COMPANY OF THE HEBREW …, priority 2006, published 2010)

Target: T1, TRPV3 (Mus musculus, UniProt Q8K424)
T1 sequence (Q8K424 1-791): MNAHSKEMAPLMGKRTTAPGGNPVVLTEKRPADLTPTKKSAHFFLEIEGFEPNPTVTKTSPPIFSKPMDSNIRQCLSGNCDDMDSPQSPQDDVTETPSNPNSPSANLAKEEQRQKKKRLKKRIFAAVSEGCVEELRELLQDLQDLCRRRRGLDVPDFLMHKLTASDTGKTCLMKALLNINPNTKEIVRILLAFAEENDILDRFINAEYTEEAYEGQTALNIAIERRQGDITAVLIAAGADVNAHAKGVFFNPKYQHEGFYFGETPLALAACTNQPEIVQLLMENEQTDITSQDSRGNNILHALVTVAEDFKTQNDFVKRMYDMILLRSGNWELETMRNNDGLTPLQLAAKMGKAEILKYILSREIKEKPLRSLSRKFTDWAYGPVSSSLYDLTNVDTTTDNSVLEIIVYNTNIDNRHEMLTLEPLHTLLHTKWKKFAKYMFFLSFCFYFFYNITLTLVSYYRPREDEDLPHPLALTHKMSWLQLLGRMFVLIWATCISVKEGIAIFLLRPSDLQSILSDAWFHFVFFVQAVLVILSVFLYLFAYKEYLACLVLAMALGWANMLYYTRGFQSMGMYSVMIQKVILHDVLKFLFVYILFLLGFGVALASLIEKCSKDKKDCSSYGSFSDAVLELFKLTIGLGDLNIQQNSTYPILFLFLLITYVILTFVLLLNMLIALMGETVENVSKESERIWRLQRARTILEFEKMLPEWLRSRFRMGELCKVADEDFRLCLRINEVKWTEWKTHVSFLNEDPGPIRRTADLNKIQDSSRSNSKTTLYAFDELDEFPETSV
Test: Elevated plus maze in WT and TRPV3−/− mice
Type: in vivo, C57BL/6 mice
Set-up: from tissue; host or cells: whole animal, wild type C57BL/6 female mice (TRPV3 KO as control)
Settings: 75 mg/kg
Description: Wild type and TRPV3^−/− mice (18-20 weeks old) were injected with vehicle (isopropanol:emulphor:saline=1:1:18) or IA (75 mg/kg). 30 min later they were tested in a, the elevated plus maze (5 min), followed by b, 9 min exposure to the Porsolt forced-swimming test. […] Data are presented as means±SEM; n=4-5. * p<0.05, compared to WT-Vehicle-injected mice (Bonferroni post hoc test). ** p<0.01, compared to WT-Vehicle-injected mice (Bonferroni post hoc test).
Mice were placed in the central platform (10×10 cm) between the open (10×45 cm) and enclosed (10×45×40 cm) arms of a plus maze. The number of entries and the time spent in each of the arms was recorded. As described by others (Crawley, 2000; Treit and Menard, 1998), an ‘anti-anxiety’ effect was calculated both as the ratio of entries onto the open arms to total arm entries, and as the % time on the open arms proportional to the time in the closed arms. Mice (female Sabra strain, aged 3.5-4.5 months old) were injected intraperitoneally with 10, 30 or 50 mg/kg of incensole acetate or with vehicle. Each dose was administered to 5 mice. Fifty min after injection the mice were tested in the plus-maze for […] effects. Desipramine (5 mg/kg) was injected to a separate group of mice as a positive control. One-way Anova indicated significant effects (F=8.9, df=4.27, P<0.01). […] Data are presented as means±SEM. DMI=desipramine […]

CC(=O)OC1CC/C(C)=C/CC/C(C)=C/CC2(C(C)C)CCC1(C)O2 (centres unmarked) [IA, incensole acetate]
time on the open arms, TRPV3−/− mice (TRPV3−/− mice, IA vs vehicle): spent identical time on the open arms | time on the open arms, WT mice (WT mice, 30 min after injection): potent anxiolytic-like effect
